The results in this text go back to paper PMC8160969, “Organoruthenium Complexes with Benzo-Fused Pyrithiones Overcome Platinum Resistance in Ovarian Cancer Cells” (Cancers, 2021).

The test has as its target T1, thioredoxin reductase (TrxR) (Rattus norvegicus, UniProt O89049).
T1 construct: gene Txnrd1; commercially available rat liver TrxR
T1 sequence (O89049 1-499): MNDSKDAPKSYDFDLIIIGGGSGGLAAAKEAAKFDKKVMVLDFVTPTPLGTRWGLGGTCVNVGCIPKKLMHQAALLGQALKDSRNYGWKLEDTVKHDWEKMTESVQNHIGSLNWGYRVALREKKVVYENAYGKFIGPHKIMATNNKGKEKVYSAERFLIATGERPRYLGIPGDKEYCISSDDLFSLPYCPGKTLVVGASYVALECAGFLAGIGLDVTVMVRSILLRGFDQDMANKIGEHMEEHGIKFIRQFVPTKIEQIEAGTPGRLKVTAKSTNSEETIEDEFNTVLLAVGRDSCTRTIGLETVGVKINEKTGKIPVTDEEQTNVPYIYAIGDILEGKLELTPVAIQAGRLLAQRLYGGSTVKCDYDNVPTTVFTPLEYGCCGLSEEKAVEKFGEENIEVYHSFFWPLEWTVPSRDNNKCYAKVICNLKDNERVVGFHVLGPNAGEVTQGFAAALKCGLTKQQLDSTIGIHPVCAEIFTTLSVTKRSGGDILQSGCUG
The test is described as follows: DTNB reduction assay with NADPH and rat liver TrxR, […] min exposure, absorbance at […] nm. Type of test: biochemical.

As for `Cc1ccc(C(C)C)cc1.[Cl][Ru-]1[O]N2C=Cc3ccccc3C2=[S+]1` [1a, organoruthenium(II) chlorido complex 1a], the half-inhibitory concentration (IC50) is 4.1 ± 0.16 µM.

The IC50 is the point on the concentration scale where inhibition reaches its midpoint. Low values mean inhibition by little substance, high ones a need for much substance.
